Drawing on PubChem BioAssay AID264 (DTP/NCI, 2004), this text covers T/C for 15 compounds.

Values joined by “and” are separate entries in the source; they are usually repeats but may differ in a detail not shown here. Identical values can stand only once. Inconclusive results are not listed.

In the assay the test system is nude mice, LX-1 lung xenograft intrarenal, tumor weight T/C. Kind of assay: NCI In Vivo Anticancer Drug Screen. Data for tumor model Human Lung LX-1 Xenograft (intrarenal inoculation) in NU/NU Swiss (nude) mice. Particulars: endpoint: mean tumor weight change, higher = larger tumour. How it is done: The antitumor activity of compounds was measured in mice bearing transplantable tumors. Survival or tumor size were measured and the results are expressed as the measurement made in the treated group (T) divided by the measurement made in the vehicle treated control group (C). The tumor model used in this assay is Human Lung LX-1 Xenograft (intrarenal inoculation) in NU/NU Swiss (nude) mice
(In xenograft studies the graft and the host belong to different species.)

Setting [1] is: dose: 100.0 mg/kg/injection, schedule: Q04DX003 (sc), vehicle: saline with Tween-80.
Setting [2] is: dose: 200.0 mg/kg/injection, schedule: Q04DX003 (sc), vehicle: saline with Tween-80.
The mark [3] stands for this setting: dose: 400.0 mg/kg/injection, schedule: Q04DX003 (sc), vehicle: saline with Tween-80.
The mark [4] stands for this setting: dose: 800.0 mg/kg/injection, schedule: Q04DX003 (sc), vehicle: saline with Tween-80.
Where [5] appears, read: dose: 25.0 mg/kg/injection, schedule: Q01DX010 (sc), vehicle: saline.
[6] abbreviates: dose: 75.0 mg/kg/injection, schedule: Q04DX003 (sc), vehicle: saline with Tween-80.
The mark [7] stands for this setting: dose: 150.0 mg/kg/injection, schedule: Q04DX003 (sc), vehicle: saline with Tween-80.
The mark [8] stands for this setting: dose: 300.0 mg/kg/injection, schedule: Q04DX003 (sc), vehicle: saline with Tween-80.
Where [9] appears, read: dose: 600.0 mg/kg/injection, schedule: Q04DX003 (sc), vehicle: saline with Tween-80.
Setting [10] is: dose: 1200.0 mg/kg/injection, schedule: Q04DX003 (sc), vehicle: saline with Tween-80.
The mark [11] stands for this setting: dose: 2400.0 mg/kg/injection, schedule: Q04DX003 (sc), vehicle: saline with Tween-80.

Take `COc1cc(C(C)(C)C)cc(OC)c1C(O)(c1c(OC)cc(C(C)(C)C)cc1OC)c1c(OC)cc(C(C)(C)C)cc1OC`: the T/C is 91 % of control under setting [1], 68 % of control under setting [2], 98 % of control under setting [3] and 86 % of control under setting [4].
Take `Nc1cc2[nH]cnc2c(=O)[nH]1`: the T/C was 25 % of control under setting [5]; 16 % of control and 18 % of control (dose: 200.0 mg/kg/injection, schedule: Q01DX010 (sc), vehicle: saline).
As to `COc1cc2c3c(cccc3c1)C(=O)N(CCN(C)C)C2=O`, the T/C by setting is: under setting [6], 98 % of control; under setting [7], 115 % of control; under setting [8], 53 % of control; under setting [9], 79 % of control.
With `COC1=C(OC)C(=O)C(SC/C=C(\C)CCCC(C)CCCC(C)CCCC(C)C)=CC1=O` (stereo unspecified), the T/C under setting [9] was 91 % of control, the T/C under setting [10] is 40 % of control and the T/C under setting [11] was 55 % of control.
`O=C1C=C[C@H](O)[C@@]2(CO)O[C@@H]12`: the T/C (dose: 6.25 mg/kg/injection, schedule: Q04DX003 (sc), vehicle: saline with Tween-80) was 108 % of control and the T/C (dose: 12.5 mg/kg/injection, schedule: Q04DX003 (sc), vehicle: saline with Tween-80) was 77 % of control.
On to `CCc1ccc(C2=C(O)C(=O)C(c3ccc(CC)cc3)=C(O)C2=O)cc1`, for which the T/C under setting [1] was 83 % of control, the T/C under setting [2] is 100 % of control, the T/C under setting [3] is 64 % of control and the T/C under setting [4] was 56 % of control.
With `Cn1c2nc(=O)n(-c3ccccc3)c(=O)c-2nc2c1CCCC2`, the T/C runs as follows: under setting [6], 71 % of control; under setting [7], 101 % of control.
As for `CCOC(=O)C1(c2ccccc2)C(=O)Oc2ccccc21` (stereo unspecified), the T/C runs as follows: under setting [8], 54 % of control; under setting [9], 103 % of control; under setting [10], 73 % of control; under setting [11], 74 % of control.
With `Cc1ccc(C(=O)[O][Hg][CH2]C2COC([CH2][Hg][O]C(=O)c3ccc(C)cc3)CO2)cc1` (stereo unspecified), the T/C is 89 % of control (dose: 25.0 mg/kg/injection, schedule: Q01DX010 (sc), vehicle: Klucel (hydroxypropylcellulose) (HPC)); 58 % of control (dose: 50.0 mg/kg/injection, schedule: Q01DX010 (sc), vehicle: Klucel (hydroxypropylcellulose) (HPC)); 112 % of control (dose: 100.0 mg/kg/injection, schedule: Q01DX010 (sc), vehicle: Klucel (hydroxypropylcellulose) (HPC)); 63 % of control (dose: 200.0 mg/kg/injection, schedule: Q01DX010 (sc), vehicle: Klucel (hydroxypropylcellulose) (HPC)).
Take `C/C=C/C=C/c1cc2cc3c(c(O)c2c(=O)[nH]1)C1(CC3)C(O)=c2c(=O)c3c(=O)cc(OC)c(=O)c=3c(=O)c2=C1O` (stereo unspecified): the T/C (dose: 0.5 mg/kg/injection, schedule: Q01DX010 (sc), vehicle: DMSO) is 221 % of control; the T/C (dose: 1.0 mg/kg/injection, schedule: Q01DX010 (sc), vehicle: DMSO) was 162 % of control; the T/C (dose: 2.0 mg/kg/injection, schedule: Q01DX010 (sc), vehicle: DMSO) is 92 % of control and 104 % of control; the T/C (dose: 4.0 mg/kg/injection, schedule: Q01DX010 (sc), vehicle: DMSO) is 103 % of control and 111 % of control; the T/C (dose: 8.0 mg/kg/injection, schedule: Q01DX010 (sc), vehicle: DMSO) was 106 % of control; the T/C (dose: 16.0 mg/kg/injection, schedule: Q01DX010 (sc), vehicle: DMSO) is 86 % of control.
Take `CCCCCCCC(=O)[O][Hg][CH2]C1COC([CH2][Hg][O]C(=O)CCCCCCC)CO1` (stereo unspecified): the T/C was 224 % of control (dose: 6.25 mg/kg/injection, schedule: Q01DX010 (sc), vehicle: saline with Tween-80); 106 % of control (dose: 25.0 mg/kg/injection, schedule: Q01DX010 (sc), vehicle: saline with Tween-80); 75 % of control and 79 % of control (dose: 50.0 mg/kg/injection, schedule: Q01DX010 (sc), vehicle: saline with Tween-80); 61 % of control (dose: 100.0 mg/kg/injection, schedule: Q01DX010 (sc), vehicle: saline with Tween-80); 42 % of control (dose: 200.0 mg/kg/injection, schedule: Q01DX010 (sc), vehicle: saline with Tween-80); 24 % of control (dose: 400.0 mg/kg/injection, schedule: Q01DX010 (sc), vehicle: saline with Tween-80).
Turning to `Cc1ccccc1CN1C2=NCCN2C(=O)C2=C1CCN(S(=O)(=O)c1ccc(Cl)c(S(N)(=O)=O)c1)C2`, the T/C runs as follows: (dose: 150.0 mg/kg/injection, schedule: Q04DX003 (sc), vehicle: saline) 77 % of control; (dose: 300.0 mg/kg/injection, schedule: Q04DX003 (sc), vehicle: saline) 96 % of control; (dose: 600.0 mg/kg/injection, schedule: Q04DX003 (sc), vehicle: saline) 155 % of control.
As for `CC(C)CCCCCCCCCCCCC(=O)NCC(=O)NC1C(O)C(O)C(Nc2ncnc3nc[nH]c23)OC1C(O)CO` (stereo unspecified), the T/C is, setting by setting: (dose: 0.4 mg/kg/injection, schedule: Q01DX010 (sc), vehicle: saline) 84 % of control; (dose: 0.8 mg/kg/injection, schedule: Q01DX010 (sc), vehicle: saline) 62 % of control; (dose: 1.6 mg/kg/injection, schedule: Q01DX010 (sc), vehicle: saline) 48 % of control.
As for `CC1CN1C(=O)NCCCCCCNC(=O)N1CC1C` (stereo unspecified), the T/C (dose: 40.0 mg/kg/injection, schedule: Q04DX003 (sc), vehicle: Klucel (hydroxypropylcellulose) (HPC)) is 6 % of control and 23 % of control.
As for `C1OC1C1CO1` (stereo unspecified), the T/C was 106 % of control (dose: 12.5 mg/kg/injection, schedule: Q01DX010 (sc), vehicle: saline); 80 % of control under setting [5]; 66 % of control (dose: 50.0 mg/kg/injection, schedule: Q01DX010 (sc), vehicle: saline).
